PMC11342128, “Gold(I) and gold(III) carbene complexes from the marine betaine norzooanemonin: inhibition of thioredoxin reductase, antiproliferative and antimicrobial activity” (RSC Medicinal Chemistry, 2024)
Where “and” joins values, the source holds several entries; their conditions need not be identical. Equal entries are not always repeated. Where two headings read alike, the source gives them in different places.

Experiments:
[1] = test system: Acinetobacter baumannii DSM30007; test: Antibacterial activity (MIC, curve fitting); type: cell-based; details: for MIC, A.b.: Table 2, Acinetobacter baumannii DSM30007, 18 h, 37 °C; for MIC, A. baumannii: Table S12, ± standard error of the mean
Description: (§1) The antibacterial activity of all gold complexes was assessed against six pathogenic bacterial strains, including two Gram-positive species, i.e. Enterococcus faecium and methicillin-resistant Staphylococcus aureus (MRSA), and four Gram-negative species, i.e. Acinetobacter baumannii, Escherichia coli, Klebsiella pneumoniae, and Pseudomonas aeruginosa. Minimum inhibitory concentrations (MICs) were determined using a curve-fitting technique.
(§2) S2.1. Antibacterial Studies
(§3) Bacterial cultures were prepared by overnight aerobic incubation at 37 °C. Gram-negative strains were cultivated in Müller Hinton broth supplemented with 1% glucose at pH 7.2, while Gram-positive strains were grown in Trypticase soy yeast extract medium (TSY) with a composition of 30 g/l trypticase soy broth, 3 g/l yeast extract, and pH 7.2. The cultures were adjusted to an OD600 of 0.001, resulting in a final starting OD600 of 0.0005 for the subsequent tests. For testing, 25 μL of the prepared culture was combined with 25 μL of serially diluted test compounds in 384 well plates, following established protocols for different strains. Screening was performed at compound concentrations of 0.5, 5, and 50 µM, and for selected compounds, growth inhibition curves were recorded using DMSO stock solutions […]
(§4) Positive control compounds, namely linezolid (for MRSA strains), ciprofloxacin (for E. faecium and E. coli), and amikacin (for P. aeruginosa), were included. The maximum DMSO concentration in the assay […]
(§5) After an 18-hour incubation at 37 °C under moist conditions, the optical density at 600 nm was measured using a Fusion Universal Microplate Analyser (Perkin–Elmer, Waltham, USA). The minimum inhibitory concentration (MIC) values, representing the […]
(§6) fitting with Sigma Plot. The bacterial strains used included Gram-negative strains: Escherichia coli (DSM 1116), A. baumannii (DSM30007), K. pneumoniae (DSM111678), and Pseudomonas aeruginosa PA7 (DSM 24068); and Gram-positive strains: E. faecium (DSM20477) and Staphylococcus aureus MRSA

[2] = test system: Enterococcus faecium DSM20477; test: Antibacterial activity (MIC, curve fitting); type: cell-based; details: for MIC, E.f.: Table 2, Enterococcus faecium DSM20477, 18 h, 37 °C; for MIC, E. faecium: Table S12, ± standard error of the mean
Description: as §1, §2, §3, §4, §5, §6

[3] = test system: Escherichia coli DSM 1116; test: Antibacterial activity (MIC, curve fitting); type: cell-based; details: for MIC, E.c.: Table 2, Escherichia coli DSM 1116, 18 h, 37 °C; for MIC, E. coli: Table S12, ± standard error of the mean
Description: as §1, §2, §3, §4, §5, §6

[4] = test system: Klebsiella pneumoniae DSM111678; test: Antibacterial activity (MIC, curve fitting); type: cell-based; details: for MIC, K.p.: Table 2, Klebsiella pneumoniae DSM111678, 18 h, 37 °C; for MIC, K. pneumoniae: Table S12, ± standard error of the mean
Description: as §1, §2, §3, §4, §5, §6

[5] = test system: Pseudomonas aeruginosa DSM 24068; test: Antibacterial activity (MIC, curve fitting); type: cell-based; details: for MIC, P.a.: Table 2, Pseudomonas aeruginosa DSM 24068, 18 h, 37 °C; for MIC, P. aeruginosa: Table S12, ± standard error of the mean
Description: as §1, §2, §3, §4, §5, §6

[6] = test system: methicillin-resistant Staphylococcus aureus DSM 11822; test: Antibacterial activity (MIC, curve fitting); type: cell-based
Description: as §1, §2, §3, §4, §5, §6

[7] = test system: A549 lung carcinoma cells; design: method as in PMID 38205632; details: read-out: Antiproliferative activity IC50, A549; cited from earlier work
[8] = test system: HT-29 colon carcinoma cells; design: method as in PMID 38205632; details: read-out: Antiproliferative activity IC50, HT-29; cited from earlier work
[9] = test system: MCF-7 breast adenocarcinoma cells; design: method as in PMID 38205632; details: read-out: Antiproliferative activity IC50, MCF-7; cited from earlier work
[10] = test system: MDA-MB-231 breast cancer cells; design: method as in PMID 38205632; details: read-out: Antiproliferative activity IC50, MDA-MB-231; cited from earlier work
[11] = target: T1, TrxR from E. coli (Escherichia coli, UniProt P0A9P4); details: read-out: Inhibition of bacterial TrxR, IC50; isolated E. coli TrxR; investigated in previous report; cited from earlier work
[12] = target: T1, TrxR from E. coli; test: Inhibition of isolated bacterial TrxR, DTNB-based assay; type: biochemical; design: purchased Sigma-Aldrich; details: for TrxR activity, % of control: compounds at 0.5 µM, n = 2, Table S13
Description: The inhibition of isolated TrxR from E. coli was determined for the selected monocarbene gold(I/III) complexes 2a–c and 4b–c using a DTNB-based assay (Table 3). […] The inhibition of bacterial TrxR for compound 2a was investigated in our previous report (Table 3).
S2.3. Inhibition of bacterial TrxR from E. coli
The TrxR (E. coli) inhibition assay was performed according to previously published procedures.[8] The assay is partly based on the procedure developed by Lu et al[9] and makes use of the reduction of DTNB (5,5′-dithiobis-(2-nitrobenzoic acid)). Solutions of E. coli TrxR (10.1 U/mL) and E. coli thioredoxin (Trx) (312 μg/mL) (both purchased from Sigma-Aldrich) were prepared in distilled water. Stock solutions of the test compounds (2 mM) were prepared in DMSO and serially diluted with TE buffer (Tris-HCl 50 mM, EDTA 1 mM, pH 7.5). 20 μL of these solutions or TE buffer without the test compounds (positive control) were mixed with the TrxR solution (10 μL), the Trx solution (10 μL) and 100 µl of NADPH (200 μM) in TE buffer in a well on a 96-well plate. As a blank control, 200 μM NADPH in TE buffer (100 μL) mixed with a DMSO / buffer mixture (40 μL) was used (final concentrations of DMSO: 0.5% v/v). The plate was incubated for 75 min at 25°C with moderate shaking. After incubation, 100 μL of a reaction mixture (TE buffer containing 200 μM NADPH and 5 mM DTNB) was added to each well to initiate the reaction. After thorough mixing, the formation of 5-TNB was monitored by a microplate reader at 405 nm in 35 s intervals (10 measurements). The values were corrected by subtraction of the blank solution absorption values. The increase in concentration of 5-TNB followed a linear trend (r2≥ 0.990) and the enzymatic activities were calculated as the gradients (increase in absorbance per second) thereof. […]
for each test compound, where the highest test compound concentration was used and the enzyme solution was replaced by TE buffer. The inhibition is presented as the mean IC50 values and standard deviations obtained in three independent experiments.
Table S13. Activity of TrxR from E. coli in presence of compounds at 0.5 µM (n = 2, n.d.= not

[13] = test system: A549 lung carcinoma cells; test: Antiproliferative activity, crystal violet assay; type: cell-based; details: 72 h exposure, SD in parentheses, n = 3
Description: (§7) The antiproliferative potential of the gold–NHC complexes was determined in A549 lung carcinoma cells, MDA-MB-231 breast cancer cells, MCF-7 breast adenocarcinoma cells, and HT-29 colon carcinoma cells (Table 1). Vero E6 African green monkey kidney cells served as a reference cell line to check for possible tumour selectivity. Auranofin (AF) was used as an established reference drug.[15,17] […]
(§8) S2.2. Cytotoxicity and Anticancer Studies
(§9) Cell culture and cytotoxicity
(§10) Cell lines were sourced from DSMZ (German Collection of Microorganisms and Cell Cultures GmbH) and maintained through standard procedures in Dulbecco's Modified Eagle Medium (DMEM) supplemented with 10% fetal calf serum and 50 mg/L gentamycin. Antiproliferative effects were assessed using a well-established assay protocol. In brief, 100 μL volumes of A549 cells (13,243 cells per mL), HT-29 cells (14,657 cells per mL), MDA-MB-231 cells (6,613 cells per mL), or MCF-7 cells (6,917 cells per mL) were transferred into the wells of 96-well plates and incubated at 37°C/5% CO2 for 72 […]
(§11) Freshly prepared stock solutions of the compounds in DMSO were diluted with the respective cell culture medium to achieve graded concentrations (final concentration of DMSO: 0.1% v/v). After 72 hours (A549, HT-29) or 96 hours (MCF-7, MDA-MB-231) of exposure, the cell biomass was assessed through crystal violet staining, and the IC50 value was determined as the concentration causing 50% inhibition of cell proliferation compared to an untreated control. Results were calculated as the mean values of three independent experiments.

[14] = test system: HT-29 colon carcinoma cells; test: Antiproliferative activity, crystal violet assay; type: cell-based; details: 72 h exposure, SD in parentheses, n = 3
Description: as §7, §8, §9, §10, §11

[15] = test system: MCF-7 breast adenocarcinoma cells; test: Antiproliferative activity, crystal violet assay; type: cell-based; details: 96 h exposure, SD in parentheses, n = 3
Description: as §7, §8, §9, §10, §11

[16] = test system: MDA-MB-231 breast cancer cells; test: Antiproliferative activity, crystal violet assay; type: cell-based; details: 96 h exposure, SD in parentheses, n = 3
Description: as §7, §8, §9, §10, §11

[17] = test system: Vero E6 African green monkey kidney cells; test: Antiproliferative activity in non-tumour reference cell line; type: cell-based; details: Vero E6 non-tumour reference cell line; SD in parentheses, n = 3
Description: as §7, §8, §9, §10, §11

[18] = Table 2, MRSA DSM 11822, 18 h, 37 °C
[19] = Table S12, ± standard error of the mean

T1 sequence (P0A9P4 2-321): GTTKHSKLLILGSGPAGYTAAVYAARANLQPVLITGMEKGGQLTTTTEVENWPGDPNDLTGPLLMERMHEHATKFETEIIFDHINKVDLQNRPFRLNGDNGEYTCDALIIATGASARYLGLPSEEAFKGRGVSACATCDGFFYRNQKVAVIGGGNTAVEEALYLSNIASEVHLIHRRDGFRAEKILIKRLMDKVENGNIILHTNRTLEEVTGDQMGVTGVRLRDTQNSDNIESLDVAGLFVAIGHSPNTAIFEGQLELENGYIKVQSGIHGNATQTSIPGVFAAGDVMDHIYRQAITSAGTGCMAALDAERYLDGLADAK

Compound | MIC, A.b. [1] | MIC, A. baumannii [1] | MIC, E.f. [2] | MIC, E. faecium [2] | MIC, E.c. [3] | MIC, E. coli [3] | MIC, K.p. [4] | MIC, K. pneumoniae [4] | MIC, P.a. [5] | MIC, P. aeruginosa [5] | MIC, MRSA [6, 18] | MIC, MRSA [6, 19] | TrxR activity, % of control [12] | other results
Cn1cc(C(=O)O)[n+](C)[c]1[Au-][Cl] [2a] | 43 ± 0 µM | 42.95 ± 0 µM | >100 µM | > 100 µM | 86 ± 0 µM | 85.89 ± 0 µM | 43 ± 7 µM | 42.95 ± 6.75 µM | >100 µM | > 100 µM | >100 µM | > 100 µM | 94.6 % of control | IC50 [7]: 60 µM; IC50 [8]: 63.9 µM; IC50 [9]: 53.4 µM; IC50 [10]: 76.1 µM; IC50 [11]: 0.786 ± 0.118 µM
CCOC(=O)c1cn(C)[c]([Au-][Cl])[n+]1C [2c] | 10 µM and 10 ± 2 µM | 9.98 ± 2.07 µM | 10 µM and 10 ± 0 µM | 9.98 ± 0 µM | 40 µM and 40 ± 0 µM | 39.94 ± 0 µM | 40 µM and 40 ± 0 µM | 39.94 ± 0 µM | >100 µM | > 100 µM | 10 µM and 10 ± 0 µM | 9.98 ± 0 µM | 13.8 % of control | IC50 [13]: 10.4 µM; IC50 [14]: 22.1 µM; IC50 [15]: 9.93 µM; IC50 [16]: 8.9 µM; IC50 [17]: 13.1 µM; IC50 ([12]; isolated E. coli TrxR, DTNB assay, ± standard deviation, n = 3): 0.133 ± 0.044 µM
